In patent US20180214449A1, “CANCER THERAPY USING JAK INHIBITOR IN COMBINATION WITH MAPK INHIBITORS” (UBRX, INC., priority 2015, published 2018):

Tests used:
[1] = test system: JAK1; settings: cited from earlier work
[2] = biological target: JAK2 (Homo sapiens, UniProt O60674); settings: cited from earlier work
[3] = test system: B-Raf inhibitor resistant cells A375 or Lu1205R; assay: Growth in soft agar of B-Raf inhibitor resistant cells; assay type: cell-based, human; settings: two weeks in soft agar
Description: Melanoma cells A375 and Lu1205 were cultured in Dulbecco's modified Eagle's medium (DMEM) supplemented with 10% fetal bovine serum (FBS), and penicillin-streptomycin. The melanoma UACC cell lines (UACC91, UACC502, UACC612, UACC647, and UACC1113) were maintained in Rosewell Park Memorial Institute Medium (RPMI1640) supplemented with 10% FBS and penicillin-streptomycin.

[4] = test system: UACC903; assay: IC50 to B-Raf inhibitors in melanoma cell line; assay type: cell-based; settings: Homo sapiens, UACC-903
[5] = test system: UACC558; assay: IC50 to B-Raf inhibitors in melanoma cell line; assay type: cell-based; settings: Homo sapiens
[6] = test system: UACC257; assay: IC50 to B-Raf inhibitors in melanoma cell line; assay type: cell-based; settings: Homo sapiens, UACC-257
[7] = test system: UACC612; assay: IC50 to B-Raf inhibitors in melanoma cell line; assay type: cell-based; settings: Homo sapiens
Description: (§1) Melanoma cells A375 and Lu1205 were cultured in Dulbecco's modified Eagle's medium (DMEM) supplemented with 10% fetal bovine serum (FBS), and penicillin-streptomycin. The melanoma UACC cell lines (UACC91, UACC502, UACC612, UACC647, and UACC1113) were maintained in Rosewell Park Memorial Institute Medium (RPMI1640) supplemented with 10% FBS and penicillin-streptomycin. In order to develop resistance to B-Raf inhibitor PLX-4032, the cells were grown with increasing concentrations of the inhibitor at each passage and eventually maintained in appropriate media containing either 5 μM (for A375 and Lu1205 cells) or 1 μM (for UACC cells) PLX-4032.
(§2) Melanoma cell lines UACC91, UACC502, UACC612, UACC647, and UACC1113 were treated with B-Raf inhibitors PLX-4032 or PLX-4720, and the IC50 values were correlated with RNF125 expression levels. The RNF125 expression was determined using RNA-Sequencing (RNA-Seq) methods and expressed in fragments per kilobase per million reads unit (FPKM).

[8] = test system: UACC91; assay: IC50 to B-Raf inhibitors in melanoma cell line; assay type: cell-based; settings: Homo sapiens
Description: as §1, §2

[9] = test system: UACC502; assay: IC50 to B-Raf inhibitors in melanoma cell line; assay type: cell-based; settings: Homo sapiens
Description: as §1, §2

[10] = test system: UACC647; assay: IC50 to B-Raf inhibitors in melanoma cell line; assay type: cell-based; settings: Homo sapiens
Description: as §1, §2

[11] = test system: UACC3291; assay: IC50 to B-Raf inhibitors in melanoma cell line; assay type: cell-based; settings: Homo sapiens
[12] = test system: UACC2641; assay: IC50 to B-Raf inhibitors in melanoma cell line; assay type: cell-based; settings: Homo sapiens
[13] = test system: UACC1308; assay: IC50 to B-Raf inhibitors in melanoma cell line; assay type: cell-based; settings: Homo sapiens
[14] = test system: other protein tyrosine kinases; settings: read-out: IC50s for other protein tyrosine kinases; units printed within the range (nM to μM); cited from earlier work
[15] = test system: mouse T-cell lymphoma cells; settings: read-out: IC50, IL-2 and IL-4-dependent proliferation; cited from earlier work
[16] = test system: A375, Lu1205, and several UACC melanoma cell lines resistant to BRAF inhibitors or BRAF and MEK inhibitors; assay: Example 2: growth in soft agar of resistant melanoma cells; assay type: cell-based, human; settings: two weeks in soft agar, 0-10 μM
Description: The cells are grown for two weeks in soft agar, in the presence of 0-10 μM of ruxolitinib (JAK1 inhibitor), dabrafenib (BRAF inhibitor), trametinib (MEK inhibitor) as single agents or in combination therapies, using a constant volume of inhibitor for all the conditions.

[17] = test system: melanoma patients; settings: clinical trial data; cited from earlier work

Sequence of JAK2 (O60674 whole entry, species assumed): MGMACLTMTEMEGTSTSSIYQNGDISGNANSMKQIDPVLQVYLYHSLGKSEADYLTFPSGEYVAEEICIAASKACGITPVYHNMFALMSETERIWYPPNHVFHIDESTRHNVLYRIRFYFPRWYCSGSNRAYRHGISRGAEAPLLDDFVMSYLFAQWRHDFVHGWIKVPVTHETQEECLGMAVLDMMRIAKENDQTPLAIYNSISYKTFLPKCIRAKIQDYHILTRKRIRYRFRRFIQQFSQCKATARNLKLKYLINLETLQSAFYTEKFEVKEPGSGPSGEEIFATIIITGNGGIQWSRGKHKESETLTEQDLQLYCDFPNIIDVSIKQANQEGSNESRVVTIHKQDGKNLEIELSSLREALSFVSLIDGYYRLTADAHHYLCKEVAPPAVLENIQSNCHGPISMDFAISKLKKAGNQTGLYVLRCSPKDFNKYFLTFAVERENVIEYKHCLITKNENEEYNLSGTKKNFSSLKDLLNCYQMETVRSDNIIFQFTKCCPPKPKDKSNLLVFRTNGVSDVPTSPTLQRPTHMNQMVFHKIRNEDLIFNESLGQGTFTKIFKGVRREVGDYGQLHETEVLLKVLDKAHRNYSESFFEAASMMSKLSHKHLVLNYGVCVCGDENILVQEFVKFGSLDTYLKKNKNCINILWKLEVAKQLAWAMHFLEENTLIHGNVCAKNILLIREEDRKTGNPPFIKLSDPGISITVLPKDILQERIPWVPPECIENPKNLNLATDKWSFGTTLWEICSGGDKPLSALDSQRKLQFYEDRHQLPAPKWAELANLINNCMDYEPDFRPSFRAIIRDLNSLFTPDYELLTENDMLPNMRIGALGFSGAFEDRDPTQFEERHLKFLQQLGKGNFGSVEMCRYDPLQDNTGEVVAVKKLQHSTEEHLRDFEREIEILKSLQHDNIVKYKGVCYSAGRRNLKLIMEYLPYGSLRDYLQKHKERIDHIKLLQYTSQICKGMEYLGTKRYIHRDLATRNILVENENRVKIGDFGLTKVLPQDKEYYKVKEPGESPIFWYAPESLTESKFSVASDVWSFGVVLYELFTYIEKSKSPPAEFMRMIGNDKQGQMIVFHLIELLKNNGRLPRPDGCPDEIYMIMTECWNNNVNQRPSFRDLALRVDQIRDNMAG

| IC50 [4] [nM] | IC50 [5] [nM] | IC50 [6] [nM] | IC50 [7] [nM] | IC50 [8] [nM] | IC50 [9] [nM] | IC50 [10] [nM] | IC50 [11] [nM] | IC50 [12] [nM] | IC50 [13] [nM] | SMILES | growth in soft agar [3] | further results |
| --- | --- | --- | --- | --- | --- | --- | --- | --- | --- | --- | --- | --- |
| – | – | – | – | – | – | – | – | – | – | Cc1cc(Nc2nc(N[C@@H](C)c3ncc(F)cn3)ncc2Cl)n[nH]1 [AZD1480] | did not inhibit growth | IC50 [1]: 1.3 nM; IC50 [2]: 0.26 nM |
| – | – | – | – | – | – | – | – | – | – | COc1cc2ncnc(Nc3ccc(F)c(Cl)c3)c2cc1OCCCN1CCOCC1 [Gefitinib] | did not inhibit growth | – |
| 250 | 690 | 150 | 3780 | 301 | 550 | 3370 | 60 | 5880 | 60 | CCCS(=O)(=O)Nc1ccc(F)c(C(=O)c2c[nH]c3ncc(-c4ccc(Cl)cc4)cc23)c1F [PLX-4032, vemurafenib] | – | – |
| 250 | 420 | 140 | 5480 | 532 | 780 | 6720 | 90 | 4590 | 90 | CCCS(=O)(=O)Nc1ccc(F)c(C(=O)c2c[nH]c3ncc(Cl)cc23)c1F [PLX-4702] | – | – |
| – | – | – | – | – | – | – | – | – | – | CC(C)(C)c1nc2c3cc[nH]c(=O)c3c3cc(F)ccc3c2[nH]1 [Pyridone 6] | – | IC50 [14]: ≥ 130 nM; IC50 [15]: 50 to 100 nM |
| – | – | – | – | – | – | – | – | – | – | CC(C)(C)c1nc(-c2cccc(NS(=O)(=O)c3c(F)cccc3F)c2F)c(-c2ccnc(N)n2)s1 [dabrafenib] | – | growth of the melanoma cells in soft agar [16]: does not block the growth; time until resistance occurs [17]: 6 to 7 months |
